From ChEMBL document CHEMBL1128102, “1,5-Benzodiazepines as CCK-B antagonists. Effect of halogen substitution at the benzo-fused ring on potency and selectivity” (Bioorg Med Chem Lett, 1995)

Tests used:
[1] = molecular target: Cholecystokinin receptor (Homo sapiens) (UniProt P32239+P32238); test: Selectivity was determined as the ratio for binding affinities of CCK-A receptor to CCK-B receptor; format: protein assay
[2] = molecular target: T1, Cholecystokinin receptor type A (Rattus norvegicus, UniProt P30551); test: Binding affinity was measured by its ability to displace [3H]CCK-8S from CCK-A receptor in rat pancreas
T1 sequence (P30551 whole entry): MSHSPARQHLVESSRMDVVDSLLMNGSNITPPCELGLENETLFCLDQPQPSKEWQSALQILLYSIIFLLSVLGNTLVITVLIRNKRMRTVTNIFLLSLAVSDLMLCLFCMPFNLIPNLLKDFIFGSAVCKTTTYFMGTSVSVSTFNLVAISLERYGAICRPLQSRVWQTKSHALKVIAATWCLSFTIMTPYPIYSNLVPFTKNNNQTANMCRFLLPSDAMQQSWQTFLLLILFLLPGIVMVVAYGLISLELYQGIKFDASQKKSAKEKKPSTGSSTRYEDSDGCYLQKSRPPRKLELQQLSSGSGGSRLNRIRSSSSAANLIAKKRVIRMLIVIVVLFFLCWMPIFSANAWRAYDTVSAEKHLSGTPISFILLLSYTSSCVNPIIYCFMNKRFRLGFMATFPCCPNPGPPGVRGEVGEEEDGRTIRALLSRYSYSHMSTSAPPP

Chain of Cholecystokinin receptor (Homo sapiens) (P32238 whole entry, looked up): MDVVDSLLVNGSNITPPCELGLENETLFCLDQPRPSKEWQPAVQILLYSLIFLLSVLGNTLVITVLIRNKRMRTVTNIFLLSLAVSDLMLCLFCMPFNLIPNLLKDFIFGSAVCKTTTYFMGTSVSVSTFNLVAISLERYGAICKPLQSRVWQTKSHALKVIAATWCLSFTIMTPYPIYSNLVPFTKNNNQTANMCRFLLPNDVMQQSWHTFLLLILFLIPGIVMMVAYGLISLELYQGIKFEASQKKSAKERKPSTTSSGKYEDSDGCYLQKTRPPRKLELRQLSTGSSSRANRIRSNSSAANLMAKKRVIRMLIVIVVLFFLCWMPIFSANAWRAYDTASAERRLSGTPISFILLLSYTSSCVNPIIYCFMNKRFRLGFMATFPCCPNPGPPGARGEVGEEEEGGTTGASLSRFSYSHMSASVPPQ
Chain of Cholecystokinin receptor (Homo sapiens) (P32239 whole entry, looked up): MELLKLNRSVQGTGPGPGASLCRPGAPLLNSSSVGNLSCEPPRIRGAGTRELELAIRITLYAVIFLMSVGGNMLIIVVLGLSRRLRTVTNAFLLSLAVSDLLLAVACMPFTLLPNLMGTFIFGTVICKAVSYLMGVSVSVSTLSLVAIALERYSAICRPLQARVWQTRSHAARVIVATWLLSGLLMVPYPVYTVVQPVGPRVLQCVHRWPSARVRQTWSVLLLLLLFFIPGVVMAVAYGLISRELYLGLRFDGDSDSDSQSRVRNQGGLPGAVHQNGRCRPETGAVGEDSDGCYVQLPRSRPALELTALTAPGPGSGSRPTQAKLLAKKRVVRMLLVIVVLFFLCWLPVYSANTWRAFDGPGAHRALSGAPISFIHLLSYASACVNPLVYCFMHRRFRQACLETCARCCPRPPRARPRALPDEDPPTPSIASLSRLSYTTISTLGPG

SMILES | Ratio [1] | Ki [2]
CC(C)CCN1C(=O)C(NC(=O)Nc2ccccc2)C(=O)N(c2ccccc2)c2cc(Cl)ccc21 (stereo not given) | 195 | 4.9 nM
CC(C)CCN1C(=O)C(NC(=O)Nc2ccccc2)C(=O)N(c2ccccc2)c2ccc(F)cc21 (stereo not given) | > 110 | 8.91 nM
CC(C)CCN1C(=O)C(NC(=O)Nc2ccccc2)C(=O)N(c2ccccc2)c2cc(F)ccc21 (stereo not given) | 49 | 4.57 nM
CC(C)CCN1C(=O)C(NC(=O)Nc2ccccc2)C(=O)N(c2ccccc2)c2ccc(Cl)cc21 (stereo not given) | 23 | 41.7 nM
CC(C)CCN1C(=O)C(NC(=O)Nc2ccccc2)C(=O)N(c2ccccc2)c2cc(Cl)c(Cl)cc21 (stereo not given) | 162 | 9.77 nM
